What was measured:
[1] = tested on: Pseudomonas aerguinosa (ATCC 15442); assay: Kinetic absorbance assay of bacterial growth (maximum growth slope), amines and amine pairs with KATHON 886MW biocide; format: cell-based; details: KATHON 100 ppm; for Maximum Growth Slope: pH 8.5
Protocol: A kinetic assay was run via absorbance measurements in a 384 well micro-titer plate with 75 μL) plate volume. Pseudomonas aerguinosa (ATCC 15442) was used as the inoculum for this kinetic assay. The organism was grown overnight in Trypticase Soy broth, pelleted, and resuspended in new medium at half its original density. The final inoculum was determined from plate counts on TSA plates spread at the time of use as 8.0×10E10 CFU/mL Each well of the microtiter plate (well volume=75 μL) was filled with 25 μL of a buffered aqueous solution of the amine being tested at the concentration necessary to yield the desired test concentration after dilution, enough Tris buffer to keep the well pH at 8.5, 25 μL of a biocide solution, and 25 μL reconstituted bacterial culture. The pH was adjusted to 8.5 with the buffer. The biocide was KATHON 886MW. The following amines were tested: butylaminoethanol (BAE, a compound according to formula I), butyldiethanolamine (BDEA, a compound according to formula II), octylaminoethanol (OAE, a compound according to formula I), and octyldiethanolamine (ODEA, a compound according to formula II), all at 99% purity): […]
The columns were laid out as follows:
The experiment ran for 20 hours with absorbance measurements taken once every 15 minutes. The data was processed by taking 10 point maximum growth slopes (milliOD per minute) after a 3 hour delay. The results of the above series are shown in FIG. 1, and selected data are tabulated in Table 2, in which biocide (KATHON) was used at a 100 ppm level.

[2] = tested on: Pseudomonas aerguinosa (ATCC 27853); assay: End-point absorbance assay of bacterial growth in 384 well microtiter plate, single amines with KATHON 886MW biocide; format: cell-based; details: for Effectiveness as an enhancer for the biocide: amine 400 ppm with KATHON 886MW up to 50 ppm, assessment in words; for End-point absorbance (660 nm): amine 400 ppm, 48 hours growth, pH 8.5
Protocol: A kinetic assay of bacterial growth in a 384 well microtiter plate was monitored by absorbance at 660 nm. The bacteria was Pseudomonas aerguinosa (ATCC 27853). The organism was grown overnight in Trypticase Soy Broth (TSB), pelleted, and resuspended in new medium at half its original density. The final inoculum was determined from plate counts on Trypticase Soy Agar (TSA) plates spread at the time of use as 4.5×10E10 CFU/mL. Each well of the microtiter plate (well volume=75 μL) was filled with 25 μL of a buffered aqueous solution of the amine being tested at the concentration necessary to yield the desired test concentration after dilution, enough Tris buffer to keep the well pH at 8.5, 25 μL of a biocide solution, and 25 μL reconstituted bacterial culture. The biocide solution and bacterial inoculum were mixed with TSB nutrient. The biocide utilized was KATHON 886MW (supplied by Rohm & Haas Company, Springhouse, Pa.). KATHON 886 MW is a 15% active solution of ⅔ CMIT (5-chloro-2-methyl-4-isothiazolin-3-one) and ⅓ MIT (2-methyl-4-isothiazolin-3-one). The experimental assessment of bacterial growth was made through an end-point absorbance measurement taken after 48 hours of growth in the various media. The concentration of the 4 different amines was 400 ppm. The concentration of the biocide was an experimental variable. The amines employed in this experiment were decyloxypropylaminopropylamine (DOPAPA), octylaminoethanol (OAE, a compound according to formula I), octyldiethanolamine (ODEA, a compound according to formula II), and dicyclohexylamine (DCHA). All absorbance values are the averages of at least three replicates.

[3] = amine 2000 ppm, 10 point maximum slope after 3 hour delay

| Compound | Comparative effectiveness (runs of Table 2) ([1]; assessment in words) | Maximum Growth Slope ([1]; amine 1000 ppm) | Maximum Growth Slope [1, 3] | Effectiveness as an enhancer for the biocide [2] | End-point absorbance (660 nm) ([2]; KATHON 886MW loading 0 ppm) | End-point absorbance (660 nm) ([2]; KATHON 886MW loading 12 ppm) | End-point absorbance (660 nm) ([2]; KATHON 886MW loading 25 ppm) | End-point absorbance (660 nm) ([2]; KATHON 886MW loading 50 ppm) | Maximum Growth Slope ([1]; amine 250 ppm) | Maximum Growth Slope ([1]; amine 500 ppm) |
| --- | --- | --- | --- | --- | --- | --- | --- | --- | --- | --- |
| CCCCNCCO [BAE, butylaminoethanol] | more effective than BDEA alone | 0.9 MilliOD/min | 0.4 MilliOD/min | – | – | – | – | – | – | – |
| CCCCCCCCN(CCO)CCO [ODEA, octyldiethanolamine] | – | – | – | moderately effective enhancer | 0.12 | 0.08 | 0.08 | 0.03 | 0.6 MilliOD/min | 0.4 MilliOD/min |
| CCCCCCCCNCCO [OAE, octylaminoethanol] | – | – | – | excellent enhancer | 0 | 0 | 0 | 0 | 0.4 MilliOD/min | −0.1 MilliOD/min |
| CCCCN(CCO)CCO [BDEA, butyldiethanolamine] | – | 1.3 MilliOD/min | 0.8 MilliOD/min | – | – | – | – | – | – | – |
| C1CCC(NC2CCCCC2)CC1 [DCHA, dicyclohexylamine, reference compound] | – | – | – | marginal enhancer | 0.14 | 0.14 | 0.10 | 0.07 | – | – |
| CCCCCCCCCCOCCCNCCCN [DOPAPA, decyloxypropylaminopropylamine, reference compound] | – | – | – | weak or ineffective | app. 0.3 | app. 0.3 | app. 0.3 | app. 0.3 | – | – |

Reference: US20080255215A1, “Combinations of Alkylalkanolamines and Alkylbisalkanolamines for Antimicrobial Compositions” (priority 2005, published 2008)
